Blank lines part the entries; values can stand above or below the compound they belong to.
Experiments:
Type in all cases: cell-based
Settings in all cases: 75 mg/l, 48 h 37° C.
[1] = system: Pseudomonas aeruginosa 0001001; assay: Peptidase detection on Columbia medium (Example 3); parameters: Coloration strength: key: +++: good growth/high coloration strength; ++: medium growth/medium coloration strength; +: weak growth/weak coloration strength; −: no growth/no coloration
Source text: (§1) A medium serving as a growth control (Columbia) and denoted C was also poured.

[2] = system: Serratia marcescens 7303004; assay: Peptidase detection on Columbia medium (Example 3); parameters: Coloration strength: key: +++: good growth/high coloration strength; ++: medium growth/medium coloration strength; +: weak growth/weak coloration strength; −: no growth/no coloration
Source text: as §1

[3] = system: Acinetobacter baumannii 0604029; assay: Peptidase detection on Columbia medium (Example 3); also: key: +++: good growth/high coloration strength; ++: medium growth/medium coloration strength; +: weak growth/weak coloration strength; −: no growth/no coloration
Source text: as §1

[4] = system: Bacillus subtilis 0204038; assay: Peptidase detection on Columbia medium (Example 3); also: key: +++: good growth/high coloration strength; ++: medium growth/medium coloration strength; +: weak growth/weak coloration strength; −: no growth/no coloration
Source text: as §1

[5] = system: Burkholderia cepacia 7507032; assay: Peptidase detection on Columbia medium (Example 3)
Source text: as §1

Candida albicans 0801025 [6] = assay: Peptidase detection on Columbia medium (Example 3); also: key: +++: good growth/high coloration strength; ++: medium growth/medium coloration strength; +: weak growth/weak coloration strength; −: no growth/no coloration
Source text: as §1

Candida glabrata 0408083 [7] = assay: Peptidase detection on Columbia medium (Example 3); also: key: +++: good growth/high coloration strength; ++: medium growth/medium coloration strength; +: weak growth/weak coloration strength; −: no growth/no coloration
Source text: as §1

[8] = system: Citrobacter freundii 0006197; assay: Peptidase detection on Columbia medium (Example 3)
Source text: as §1

[9] = system: Enterobacter cloacae 0604040; assay: Peptidase detection on Columbia medium (Example 3)
Source text: as §1

[10] = system: Enterococcus faecalis 0008192; assay: Peptidase detection on Columbia medium (Example 3)
Source text: as §1

[11] = system: Enterococcus faecium 0610021; assay: Peptidase detection on Columbia medium (Example 3)
Source text: as §1

Escherichia coli 0002005 [12] = assay: Peptidase detection on Columbia medium (Example 3)
Source text: as §1

[13] = system: Klebsiella pneumoniae 0008009; assay: Peptidase detection on Columbia medium (Example 3)
Source text: as §1

[14] = system: Listeria monocytogenes 8812049; assay: Peptidase detection on Columbia medium (Example 3)
Source text: as §1

MRSA 0303033 [15] = assay: Peptidase detection on Columbia medium (Example 3)
Source text: as §1

[16] = system: Morganella morganii 9207053; assay: Peptidase detection on Columbia medium (Example 3)
Source text: as §1

[17] = system: Providencia rettgeri 0706064; assay: Peptidase detection on Columbia medium (Example 3)
Source text: as §1

[18] = system: Salmonella ser. Typhimurium 0801029; assay: Peptidase detection on Columbia medium (Example 3)
Source text: as §1

[19] = system: Staphylococcus aureus 7811049; assay: Peptidase detection on Columbia medium (Example 3)
Source text: as §1

[20] = system: Staphylococcus epidermidis 0203050; assay: Peptidase detection on Columbia medium (Example 3)
Source text: as §1

[21] = system: Streptococcus pyogenes 9806380; assay: Peptidase detection on Columbia medium (Example 3)
Source text: as §1

[22] = system: Yersinia enterocolitica 7605019; assay: Peptidase detection on Columbia medium (Example 3)
Source text: as §1

[23] = system: Acinetobacter baumannii 0604029; assay: Peptidase detection on Columbia medium (Example 5)
Description: (§2) After homogenization, the media were distributed into Petri dishes 55 mm in diameter. A medium acting as a growth control (Columbia) and denoted C was also poured.
(§3) Twenty-two strains of microorganisms were inoculated with a 10 μl calibrated loop according to the three-quadrant streaking method using bacterial suspensions at 0.5 McFarland.

[24] = system: Bacillus subtilis 0204038; assay: Peptidase detection on Columbia medium (Example 5)
Description: as §2, §3

[25] = system: Burkholderia cepacia 7507032; assay: Peptidase detection on Columbia medium (Example 5)
Description: as §2, §3

Candida albicans 0801025 [26] = assay: Peptidase detection on Columbia medium (Example 5)
Description: as §2, §3

Candida glabrata 0408083 [27] = assay: Peptidase detection on Columbia medium (Example 5)
Description: as §2, §3

[28] = system: Citrobacter freundii 0006197; assay: Peptidase detection on Columbia medium (Example 5)
Description: as §2, §3

[29] = system: Enterobacter cloacae 0604040; assay: Peptidase detection on Columbia medium (Example 5)
Description: as §2, §3

[30] = system: Enterococcus faecalis 0008192; assay: Peptidase detection on Columbia medium (Example 5)
Description: as §2, §3

[31] = system: Enterococcus faecium 0610021; assay: Peptidase detection on Columbia medium (Example 5)
Description: as §2, §3

Escherichia coli 0002005 [32] = assay: Peptidase detection on Columbia medium (Example 5)
Description: as §2, §3

[33] = system: Klebsiella pneumoniae 0008009; assay: Peptidase detection on Columbia medium (Example 5)
Description: as §2, §3

[34] = system: Listeria monocytogenes 8812049; assay: Peptidase detection on Columbia medium (Example 5)
Description: as §2, §3

MRSA 0303033 [35] = assay: Peptidase detection on Columbia medium (Example 5)
Description: as §2, §3

[36] = system: Morganella morganii 9207053; assay: Peptidase detection on Columbia medium (Example 5)
Description: as §2, §3

[37] = system: Providencia rettgeri 0706064; assay: Peptidase detection on Columbia medium (Example 5)
Description: as §2, §3

[38] = system: Pseudomonas aeruginosa 0001001; assay: Peptidase detection on Columbia medium (Example 5)
Description: as §2, §3

[39] = system: Salmonella ser. Typhimurium 0801029; assay: Peptidase detection on Columbia medium (Example 5)
Description: as §2, §3

[40] = system: Serratia marcescens 7303004; assay: Peptidase detection on Columbia medium (Example 5)
Description: as §2, §3

[41] = system: Staphylococcus aureus 7811049; assay: Peptidase detection on Columbia medium (Example 5)
Description: as §2, §3

[42] = system: Staphylococcus epidermidis 0203050; assay: Peptidase detection on Columbia medium (Example 5)
Description: as §2, §3

[43] = system: Streptococcus pyogenes 9806380; assay: Peptidase detection on Columbia medium (Example 5)
Description: as §2, §3

[44] = system: Yersinia enterocolitica 7605019; assay: Peptidase detection on Columbia medium (Example 5)
Description: as §2, §3

- Color [1]: Orangey-red
- Coloration strength [1]: +++
- Growth ([1]; control C: +++): +++
- Coloration strength [2]: ++
- Growth ([2]; control C: +++): +++
- Coloration strength [3]: −
- Growth ([3]; control C: +++): +++
- Coloration strength [4]: −
- Growth ([4]; control C: +++): −
- Coloration strength [5]: −
- Growth ([5]; control C: ++): ++
- Coloration strength [8]: −
- Growth ([8]; control C: +++): +++
- Coloration strength [9]: −
- Growth ([9]; control C: +++): +++
- Coloration strength [10]: −
- Growth ([10]; control C: ++): ++
- Coloration strength [11]: −
- Growth ([11]; control C: ++): ++
- Coloration strength [13]: −
- Growth ([13]; control C: +++): +++
- Coloration strength [14]: −
- Growth ([14]; control C: ++): ++
- Coloration strength (MRSA 0303033 [15]): −
- Growth (MRSA 0303033 [15]; control C: +++): ++
- Coloration strength [16]: −
- Growth ([16]; control C: +++): +++
- Coloration strength [18]: −
- Growth ([18]; control C: +++): +++
- Coloration strength [21]: −
- Growth ([21]; control C: −): −
Compound: Cc1cc(C=Cc2ccc(NC(=O)[C@@H]3CCC(=O)N3)cc2)c2ccccc2[n+]1C.[I-] [pyroglutamyl-4-(4′-amidostyryl)-N-methylquinaldinium iodide]
- Coloration strength (Candida albicans 0801025 [6]): −
- Growth (Candida albicans 0801025 [6]; control C: ++): +
- Coloration strength (Candida glabrata 0408083 [7]): −
- Growth (Candida glabrata 0408083 [7]; control C: +): −
- Coloration strength (Escherichia coli 0002005 [12]): −
- Growth (Escherichia coli 0002005 [12]; control C: +++): +++
- Coloration strength [17]: −
- Growth ([17]; control C: +++): +++
- Coloration strength [19]: −
- Growth ([19]; control C: ++): ++
- Coloration strength [20]: −
- Growth ([20]; control C: ++): −
- Coloration strength [22]: −
- Growth ([22]; control C: ++): +

- Coloration strength [23]: −
- Growth ([23]; control C: ++): ++
- Color [24]: orange
- Coloration strength [24]: +
- Growth ([24]; control C: ++): ++
- Coloration strength [25]: −
- Growth ([25]; control C: ++): ++
- Coloration strength [28]: −
- Growth ([28]; control C: ++): ++
- Coloration strength [29]: −
- Growth ([29]; control C: ++): ++
- Color [30]: orange
- Coloration strength [30]: +
- Growth ([30]; control C: +): +
- Color [31]: orange
- Coloration strength [31]: +
- Growth ([31]; control C: +): +
- Coloration strength [33]: −
- Growth ([33]; control C: ++): ++
- Color [34]: orange
- Coloration strength [34]: +
- Growth ([34]; control C: +): +
- Color (MRSA 0303033 [35]): orange
- Coloration strength (MRSA 0303033 [35]): +
- Growth (MRSA 0303033 [35]; control C: ++): ++
- Coloration strength [36]: −
- Growth ([36]; control C: ++): ++
- Coloration strength [38]: −
- Growth ([38]; control C: ++): ++
- Coloration strength [39]: −
- Growth ([39]; control C: ++): ++
- Color [40]: orange
- Coloration strength [40]: +
- Growth ([40]; control C: ++): ++
- Coloration strength [43]: −
- Growth ([43]; control C: +): +
Compound: C[C@H](N)C(=O)Nc1ccc(C=Cc2ccc3ccccc3[n+]2C)cc1.Cl.[Cl-] [L-alanyl-2-(4′-amidostyryl)-N-methylquinolinium (dichloride)]
- Coloration strength (Candida albicans 0801025 [26]): −
- Growth (Candida albicans 0801025 [26]; control C: ++): ++
- Coloration strength (Candida glabrata 0408083 [27]): −
- Growth (Candida glabrata 0408083 [27]; control C: +): +
- Coloration strength (Escherichia coli 0002005 [32]): −
- Growth (Escherichia coli 0002005 [32]; control C: ++): ++
- Coloration strength [37]: −
- Growth ([37]; control C: ++): ++
- Coloration strength [41]: −
- Growth ([41]; control C: ++): ++
- Color [42]: orange
- Coloration strength [42]: +
- Growth ([42]; control C: ++): ++
- Coloration strength [44]: −
- Growth ([44]; control C: +): +
